Assay results from patent US8466291B2, “1,5-dideoxy-1,5-imino-D-glucitol compounds” (Academia Sinica, priority 2008, dated 2013).

What was measured:
Human O-GlcNAcase = target: T1, Human O-GlcNAcase (Homo sapiens, UniProt O60502); assay: Inhibition of human O-GlcNAcase; type: biochemical; conditions: Table 2
T1 construct: made in house
T1 sequence (O60502 1-916): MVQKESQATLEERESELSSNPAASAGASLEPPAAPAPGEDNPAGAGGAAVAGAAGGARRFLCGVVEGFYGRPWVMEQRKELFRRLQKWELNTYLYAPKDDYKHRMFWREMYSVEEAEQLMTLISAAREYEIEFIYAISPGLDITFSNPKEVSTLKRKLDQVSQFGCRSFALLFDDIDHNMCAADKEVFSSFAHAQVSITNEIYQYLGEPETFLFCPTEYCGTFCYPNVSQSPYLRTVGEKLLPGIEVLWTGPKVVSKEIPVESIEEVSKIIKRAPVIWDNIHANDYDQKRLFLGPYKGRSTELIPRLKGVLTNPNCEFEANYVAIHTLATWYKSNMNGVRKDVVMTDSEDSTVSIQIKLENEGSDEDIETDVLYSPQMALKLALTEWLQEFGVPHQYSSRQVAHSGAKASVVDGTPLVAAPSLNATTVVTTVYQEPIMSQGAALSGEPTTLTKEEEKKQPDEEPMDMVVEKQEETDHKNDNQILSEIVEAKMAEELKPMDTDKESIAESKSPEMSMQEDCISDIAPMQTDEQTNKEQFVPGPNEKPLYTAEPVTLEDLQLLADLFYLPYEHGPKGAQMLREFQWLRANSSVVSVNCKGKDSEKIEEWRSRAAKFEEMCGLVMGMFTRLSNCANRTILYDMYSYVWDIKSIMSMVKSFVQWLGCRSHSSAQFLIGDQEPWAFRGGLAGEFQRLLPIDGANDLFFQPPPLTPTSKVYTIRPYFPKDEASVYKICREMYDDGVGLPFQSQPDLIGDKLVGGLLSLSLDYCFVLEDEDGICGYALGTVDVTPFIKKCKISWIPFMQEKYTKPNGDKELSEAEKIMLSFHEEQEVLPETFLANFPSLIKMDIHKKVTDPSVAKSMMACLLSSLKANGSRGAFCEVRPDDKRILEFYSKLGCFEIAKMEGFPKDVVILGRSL
Method: Human O-GlcNAcase was also prepared and tested according to the procedures described in Gao et al., J. Biol. Chem. 2001, 276, 9838-9845 and Macauley et al., J. Am. Chem. Soc. 2005, 127, 17202-17203.

human Hex B (FLAG-HexB) = target: T2, human Hex B (FLAG-HexB) (Homo sapiens, UniProt P07686); assay: In situ immunostaining of Compound 5 and FLAG-HexB in 293T/FLAG-HexB cells; type: cell-based; conditions: confocal immunofluorescence, anti-FLAG and anti-biotin antibodies
T2 construct: FLAG (N); expressed in transfected cells
T2 sequence (P07686 122-556): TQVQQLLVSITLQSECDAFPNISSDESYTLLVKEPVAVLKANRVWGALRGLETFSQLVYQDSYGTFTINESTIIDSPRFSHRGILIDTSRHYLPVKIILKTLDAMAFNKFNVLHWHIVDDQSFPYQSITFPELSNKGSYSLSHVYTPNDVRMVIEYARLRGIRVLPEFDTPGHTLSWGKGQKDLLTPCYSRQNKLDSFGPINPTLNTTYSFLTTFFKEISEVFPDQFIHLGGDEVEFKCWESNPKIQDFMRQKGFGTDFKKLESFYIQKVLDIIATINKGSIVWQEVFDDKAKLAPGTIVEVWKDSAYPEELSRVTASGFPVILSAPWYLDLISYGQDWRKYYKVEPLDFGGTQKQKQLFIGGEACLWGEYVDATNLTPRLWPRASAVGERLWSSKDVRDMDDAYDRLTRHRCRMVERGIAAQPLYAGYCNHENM
Method: A DNA fragment encoding human Hex B was amplified by PCR and cloned into pCMV-Tag 2B vector (Stratagene) to produce FLAG-tagged HexB expression plasmid (pFLAG-HexB). This plasmid was introduced into 293T cells to establish a cell line stably expressing FLAG-HexB. Briefly, 293T cells were maintained in Dulbecco's modified Eagle's medium (DMEM) supplemented with 10% (by volumn) heat inactivated fetal bovine serum (FBS), 2 mM glutamine, 100 units/mL penicillin and 100 μg/mL streptomycin at 37° C. in a 5% CO2 atmosphere. These cells were transfected with expression plasmid pFLAG-HexB and plasmid pBabe-puro (carrying a puromycin resistance gene) at a molar ratio of 30-40:1. 8 hours later, the transfected cells were fed with fresh medium and incubated for 16 h. These cells were then cultured in puromycin-containing (2 μg/mL) medium for 2-3 weeks to screen for puromycin-resistant clones.
Binding of Compound 5 to HexB was first examined by in situ immunostaining as follows. 293T/FLAG-HexB cells were grown on glass coverslips in the presence of biotin-conjugated Compound 5 and fixed in 4% paraformaldehyde for 15 min. […]

CC(=O)NC1CN(CCCCCCCNC(=O)CCCCC2SCC3NC(=O)NC32)C(CO)C(O)C1O (stereo not drawn) [Compound 5]
Selectivity (KI O-GlcNAcase/KI HEX) (Human O-GlcNAcase; Human O-GlcNAcase over human HEX B): 5,400 | Ki (Human O-GlcNAcase; Human O-GlcNAcase): 145 ± 1.77 µM | co-localization of FLAG-HexB and compound (human Hex B (FLAG-HexB)): co-localized in the cytoplasm
